The test system of assay [1] is HIV-1 (strain IIIB). As to the kind of experiment: MT4 cell antiviral assay (as described in the method). The assay is classed as cell-based. To be noted: Human immunodeficiency virus 1, IIIB, control and standard in every assay, propidium iodide readout, read-out: expected range of IC50 values. The method, then: Antiviral HIV activity and compound-induced cytotoxicity were measured in parallel by means of a propidium iodide based procedure in the human T-cell lymphotropic virus transformed cell line MT4. Aliquots of the test compounds were serially diluted in medium (RPMI 1640, 10% fetal calf serum (FCS), and gentamycin) in 96-well plates (Costar 3598) using a Cetus Pro/Pette. Exponentially growing MT4 cells were harvested and centrifuged at 1000 rpm for 10 min in a Jouan centrifuge (model CR 4 12). Cell pellets were resuspended in fresh medium (RPMI 1640, 20% FCS, 20% IL-2, and gentamycin) to a density of 5×10^5 cells/ml. […]
For propidium iodide readout, 27 μl of 5% Nonidet-40 was added to each well of the incubation plate. […] The plates were analyzed in an automated assay instrument (Screen Machine, Idexx Laboratories). […]
For MTS readout, 20 μl CellTiter 96 AQ One Solution reagent (Promega #G3582) was added to each well. At 75 minutes following the addition of MTS reagent, absobance was read at 492 nm using a Tecan Sunrise 96-well plate reader. […]
For each assay plate, the results (relative fluorescence units, rfU, or OD values) of wells containing uninfected cells or infected cells with no compound were averaged, respectively. […] Percent of cells remaining is determined by the following formula: […]

In assay [2] the test system is HIV-1 NL4-3 wt. In words: MT4 cell antiviral assay, NL4-3 wt. Format: cell-based. To be noted: Human immunodeficiency virus 1, NL43, 120 h; MT4 cells, 5 days, HIV-induced cytopathic effect. For orientation: Protection from cytopathic effect is a common read-out in antiviral testing.
The subject of assay [3] is HIV-1 V370A. As to the kind of experiment: MT4 cell antiviral assay, V370A. Format: cell-based. Particulars: Human immunodeficiency virus 1, MT4, 120 h, read-out: EC50 V370A.
Assay [4] deals with HIV. To be noted: cited from earlier work.

Where a name gives a salt, the structure may show the parent alone.

Turning to `Cc1cn([C@H]2C[C@H](N=[N+]=[N-])[C@@H](CO)O2)c(=O)[nH]c1=O` [3′-azido-3′-deoxythymidine], in assay [1], the half-maximal inhibitory concentration (IC50) was in the range of 40 to 120 nM. Consider `CC(C)C1=C2[C@H]3CC[C@@H]4[C@@]5(C)CC=C(C6=CCC(C(=O)O)CC6)C(C)(C)[C@@H]5CC[C@@]4(C)[C@]3(C)CC[C@@]2(NCCN2CCC(S(C)(=O)=O)CC2)CC1=O` (stereo partly drawn) [Example 1, 4-((3aR,5aR,5bR,7aR,11aS,11bR,13aS)-1-Isopropyl-5a,5b,8,8,11a-pentamethyl-3a-((2-(4-(methylsulfonyl)piperidin-1-yl)ethyl)amino)-2-oxo-3,3a,4,5,5a,5b,6,7,7a,8,11,11a,11b,12,13,13a-hexadecahydro-2H-cyclopenta[a]chrysen-9-yl)cyclohex-3-enecarboxylic acid], for which the EC50 was determined as 99 nM in assay [2] and 352 nM in assay [3]. Consider `CC(C)C1=C2C3CCC4[C@@]5(C)CC=C(c6ccc(C(=O)O)cc6)C(C)(C)C5CC[C@@]4(C)[C@]3(C)CC[C@@]2(NC(=O)N(CCN(C)C)Cc2ccc(Cl)cc2)CC1=O` (stereo partly drawn) [Example 7, 4-((3aR,5aR,5bR,11aS)-3a-(3-(4-chlorobenzyl)-3-(2-(dimethylamino)ethyl)ureido)-1-isopropyl-5a,5b,8,8,11a-pentamethyl-2-oxo-3,3a,4,5,5a,5b,6,7,7a,8,11,11a,11b,12,13,13a-hexadecahydro-2H-cyclopenta[a]chrysen-9-yl)benzoic acid], for which the EC50 in assay [2] was 6.3 nM. `CC(C)C1=C2[C@H]3CC[C@@H]4[C@@]5(C)CC=C(c6ccc(C(=O)O)cc6)C(C)(C)[C@@H]5CC[C@@]4(C)[C@]3(C)CC[C@@]2(NCCN(CCN(C)C)Cc2ccc(Cl)cc2)CC1=O` [Example 4, 4-((3aR,5aR,5bR,7aR,11aS,11bR,13aS)-3a-((2-((4-Chlorobenzyl)(2-(dimethylamino)ethyl)amino)ethyl)amino)-1-isopropyl-5a,5b,8,8,11a-pentamethyl-2-oxo-3,3a,4,5,5a,5b,6,7,7a,8,11,11a,11b,12,13,13a-hexadecahydro-2H-cyclopenta[a]chrysen-9-yl)benzoic acid hydrochloride salt] came in with a 50% effective concentration (EC50) in assay [2] of 29 nM. `CC(C)C1=C2[C@H]3CC[C@@H]4[C@@]5(C)CC=C(C6=CCC(C(=O)O)CC6)C(C)(C)[C@@H]5CC[C@@]4(C)[C@]3(C)CC[C@@]2(NCCN2CCS(=O)(=O)CC2)CC1=O` (stereo partly drawn) [Example 2, 4-((3aR,5aR,5bR,7aR,11aS,11bR,13aS)-3a-((2-(1,1-Dioxidothiomorpholino)ethyl)amino)-1-isopropyl-5a,5b,8,8,11a-pentamethyl-2-oxo-3,3a,4,5,5a,5b,6,7,7a,8,11,11a,11b,12,13,13a-hexadecahydro-2H-cyclopenta[a]chrysen-9-yl)cyclohex-3-enecarboxylic acid]: the EC50 in assay [2] was determined as 8 nM; in assay [3] it was 18 nM. As to `CC(C)C1=C2[C@H]3CC[C@@H]4[C@@]5(C)CC=C(C6=CCC(C(=O)O)CC6)C(C)(C)[C@@H]5CC[C@@]4(C)[C@]3(C)CC[C@@]2(NCCN(CCN(C)C)Cc2ccc(Cl)cc2)CC1=O` (stereo partly drawn) [Example 3, 4-((3aR,5aR,5bR,7aR,11aS,11bR,13aS)-3a-((2-((4-Chlorobenzyl)(2-(dimethylamino)ethyl)amino)ethyl)amino)-1-isopropyl-5a,5b,8,8,11a-pentamethyl-2-oxo-3,3a,4,5,5a,5b,6,7,7a,8,11,11a,11b,12,13,13a-hexadecahydro-2H-cyclopenta[a]chrysen-9-yl)cyclohex-3-enecarboxylic acid], the results for the EC50 in assay [2] and in assay [3] were 11 nM and 42 nM, respectively. For `CC(C)C1=C2[C@H]3CC[C@@H]4[C@@]5(C)CC=C(c6ccc(C(=O)O)cc6)C(C)(C)[C@@H]5CC[C@@]4(C)[C@]3(C)CC[C@@]2(NCCN2CCS(=O)(=O)CC2)CC1=O` [Example 5, 4-((3aR,5aR,5bR,11aS)-3a-((2-(1,1-Dioxidothiomorpholino)ethyl)amino)-1-isopropyl-5a,5b,8,8,11a-pentamethyl-2-oxo-3,3a,4,5,5a,5b,6,7,7a,8,11,11a,11b,12,13,13a-hexadecahydro-2H-cyclopenta[a]chrysen-9-yl)benzoic acid hydrochloride] the same measures were 30 nM and 776 nM.

As to `CC(C)C1=C2C3CCC4[C@@]5(C)CC=C(c6ccc(C(=O)O)cc6)C(C)(C)C5CC[C@@]4(C)[C@]3(C)CC[C@@]2(NC(=O)CN(CCN(C)C)Cc2ccc(Cl)cc2)CC1=O` (stereo partly drawn) [Example 8, 4-((3aR,5aR,5bR,11aS)-3a-(2-((4-chlorobenzyl)(2-(dimethylamino)ethyl)amino)acetamido)-1-isopropyl-5a,5b,8,8,11a-pentamethyl-2-oxo-3,3a, 4,5,5a,5b,6,7,7a,8,11,11a,11b,12,13,13a-hexadecahydro-2H-cyclopenta[a]chrysen-9-yl)benzoic acid], the figures for the half-maximal effective concentration (EC50) in assay [2] and in assay [3] were 2 nM and 8 nM, respectively.

In assay [2], `CC(C)C1=C2C3CCC4[C@@]5(C)CC=C(c6ccc(C(=O)O)cc6)C(C)(C)C5CC[C@@]4(C)[C@]3(C)CC[C@@]2(NC(=O)CN2CCS(=O)(=O)CC2)CC1=O` (stereo partly drawn) [Example 6, 4-((3aR,5aR,5bR,11aS)-3a-(2-(1,1-Dioxidothiomorpholino)acetamido)-1-isopropyl-5a,5b,8,8,11a-pentamethyl-2-oxo-3,3a,4,5,5a,5b,6,7,7a,8,11,11a,11b,12,13,13a-hexadecahydro-2H-cyclopenta[a]chrysen-9-yl)benzoic acid hydrochloride salt] gave an EC50 of 159 nM. For `C=C(C)[C@@H]1CC[C@]2(C(=O)O)CC[C@]3(C)[C@H](CC[C@@H]4[C@@]5(C)CC[C@H](OC(=O)CC(C)(C)C(=O)O)C(C)(C)[C@@H]5CC[C@]43C)[C@@H]12` [Bevirimat], the “mean reduction of HIV viral load” value in assay [4] (patients with trough levels >=20 μg/mL and no key baseline Gag polymorphisms at Q369, V370 or T371) is 1.3 log10/mL. Also, the “viral load reduction versus patients without Gag polymorphisms” value in assay [4] (users with Gag polymorphisms at Q369, V370 or T371) is on record as “significantly lower load reductions”.

Usually IC50 stands for the point on the concentration scale where inhibition reaches its midpoint. One may read the EC50 as the concentration giving half of the maximal effect.

These data come from US20190023733A1, “AMINE DERIVATIVES OF LUPANES WITH HIV MATURATION INHIBITORY ACTIVITY” (priority 2016, published 2019).
